Measured values: patent US20260042762A1 (Kymera Therapeutics, Inc., priority 2018, published 2026)

biological target: T1, MerTK (Homo sapiens, UniProt Q12866); assay: MerTk degradation in Jurkat cells (Western blot); assay type: cell-based; conditions: Jurkat, 4 h, 0.001-1 μM, 4 hour-incubation at 37° C., read-out: Jurkat Max % MerTK Degradation
T1 construct: endogenous in cells; host or cells: Jurkat cells
T1 sequence (Q12866 21-999): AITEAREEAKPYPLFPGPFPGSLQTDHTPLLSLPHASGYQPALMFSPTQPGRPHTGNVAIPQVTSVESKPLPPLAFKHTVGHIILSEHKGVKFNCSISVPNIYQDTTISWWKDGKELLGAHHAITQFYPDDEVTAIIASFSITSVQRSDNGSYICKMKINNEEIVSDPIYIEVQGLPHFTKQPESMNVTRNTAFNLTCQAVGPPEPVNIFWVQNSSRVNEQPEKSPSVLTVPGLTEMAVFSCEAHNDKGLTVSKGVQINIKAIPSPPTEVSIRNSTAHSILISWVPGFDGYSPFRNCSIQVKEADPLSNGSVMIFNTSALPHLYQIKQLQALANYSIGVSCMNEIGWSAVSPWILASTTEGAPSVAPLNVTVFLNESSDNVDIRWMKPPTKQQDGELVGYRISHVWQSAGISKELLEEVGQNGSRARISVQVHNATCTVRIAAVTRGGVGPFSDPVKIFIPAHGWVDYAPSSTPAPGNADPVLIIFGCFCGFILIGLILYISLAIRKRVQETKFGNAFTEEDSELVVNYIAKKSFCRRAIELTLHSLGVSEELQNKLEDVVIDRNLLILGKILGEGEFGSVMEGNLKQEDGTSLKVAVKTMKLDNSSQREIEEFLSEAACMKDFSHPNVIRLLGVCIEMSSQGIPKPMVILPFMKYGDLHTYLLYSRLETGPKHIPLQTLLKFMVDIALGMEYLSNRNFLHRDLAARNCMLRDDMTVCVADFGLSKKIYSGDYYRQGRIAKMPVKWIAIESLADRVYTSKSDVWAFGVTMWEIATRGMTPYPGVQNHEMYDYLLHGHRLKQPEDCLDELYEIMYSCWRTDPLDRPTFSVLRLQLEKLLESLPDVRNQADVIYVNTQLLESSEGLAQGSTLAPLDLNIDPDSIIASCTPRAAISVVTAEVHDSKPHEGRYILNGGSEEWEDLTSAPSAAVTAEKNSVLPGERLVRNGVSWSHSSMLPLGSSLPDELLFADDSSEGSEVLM
In short: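 MerTK degradation was read by near-infrared Western blot, normalized to actin, in BCA-quantified lysates of Jurkat cells exposed to 0.001-1 μM compound for 4 h at 37 °C.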

Dmax, > 50%:
Cn1c(=O)n([C@H]2CCC(=O)NC2=O)c2ccc(C#CCOCCOCCN3CCN(Cc4ccc(-c5cn([C@H]6CC[C@H](O)CC6)c6nc(NCCC(F)(F)F)ncc56)cc4)CC3)cc21 [I-82, 3-(3-methyl-2-oxo-5-[3-[2-(2-[4-[(4-[7-[trans-4-hydroxycyclohexy1]-2-[(3,3,3-trifluoropropyl)amino]-7H-pyrrolo[2,3-d]pyrimidin-5-yl]phenyl)methyl]piperazin-1-yl]ethoxy)ethoxy]prop-1-yn-1-yl]-2,3-dihydro-1H-1,3-benzodiazol-1-yl)piperidine-2,6-dione]
Cn1c(=O)n([C@H]2CCC(=O)NC2=O)c2ccc(CCCOCCCN3CCN(Cc4ccc(-c5cn(C6CCCCC6)c6nc(NCCC(F)(F)F)ncc56)cc4)CC3)cc21 [I-83, 3-[5-[3-(3-[4-[(4-[7-cyclohexyl-2-[(3,3,3-trifluoropropyl)amino]-7H-pyrrolo[2,3-d]pyrimidin-5-yl]phenyl)methyl]piperazin-1-yl]propoxy)propyl]-3-methyl-2-oxo-2,3-dihydro-1H-1,3-benzodiazol-1-yl]piperidine-2,6-dione;]
Cn1c(=O)n([C@H]2CCC(=O)NC2=O)c2ccc(CCCOCCCCN3CCN(Cc4ccc(-c5cn(C6CCCCC6)c6nc(NCCC(F)(F)F)ncc56)cc4)CC3)cc21 [I-84, 3-[5-[3-(4-[4-[(4-[7-cyclohexy1-2-[(3,3,3-trifluoropropyl)amino]-7H-pyrrolo[2,3-d]pyrimidin-5-y1]phenyl)methyl]piperazin-1-yl]butoxy)propyl]-3-methyl-2-oxo-2,3-dihydro-1H-1,3-benzodiazol-1-yl]piperidine-2,6-dione]
Cn1c(=O)n(C2CCC(=O)NC2=O)c2ccc(C#CCOCCN3CCC(N4CCN(Cc5ccc(-c6cn([C@H]7CC[C@H](O)CC7)c7nc(NCCC(F)(F)F)ncc67)cc5)CC4)C3)cc21 (stereo partly drawn) [I-85, 3-(3-methyl-2-oxo-5-[3-[2-(3-[4-[(4-[7-[trans-4-hydroxycyclohexyl]-2-[(3,3,3-trifluoropropyl)amino]-7H-pyrrolo[2,3-d]pyrimidin-5-yl]phenyl)methyl]piperazin-1-yl]pyrrolidin-1-yl)ethoxy]prop-1-yn-1-y1]-2,3-dihydro-1H-1,3-benzodiazol-1-y1)piperidine-2,6-dione; di(formic acid)]
Cn1c(=O)n([C@H]2CCC(=O)NC2=O)c2ccc(C#CCOCCN3CCC(N4CCN(Cc5ccc(-c6cn([C@H]7CC[C@H](O)CC7)c7nc(NCCC(F)(F)F)ncc67)cc5)CC4)CC3)cc21 [I-86, 3-(3-methyl-2-oxo-5-[3-[2-(4-[4-[(4-[7-[trans-4-hydroxycyclohexy1]-2-[(3,3,3-trifluoropropyl)amino]-7H-pyrrolo[2,3-d]pyrimidin-5-yl]phenyl)methyl]piperazin-1-yl]piperidin-1-yl)ethoxy]prop-1-yn-1-yl]-2,3-dihydro-1H-1,3-benzodiazol-1-yl)piperidine-2,6-dione; formic acid]
Cn1c(=O)n(C2CCC(=O)NC2=O)c2ccc(C#CCOCCN3CCCC(N4CCN(Cc5ccc(-c6cn([C@H]7CC[C@H](O)CC7)c7nc(NCCC(F)(F)F)ncc67)cc5)CC4)C3)cc21 (stereo partly drawn) [I-87, 3-(3-methyl-2-oxo-5-[3-[2-(3-[4-[(4-[7-[trans-4-hydroxycyclohexyl]-2-[(3,3,3-trifluoropropyl)amino]-7H-pyrrolo[2,3-d]pyrimidin-5-yl]phenyl)methyl]piperazin-1-yl]piperidin-1-yl)ethoxy]prop-1-yn-1-y1]-2,3-dihydro-1H-1,3-benzodiazol-1-y1)piperidine-2,6-dione; formic acid]
Cn1c(=O)n([C@H]2CCC(=O)NC2=O)c2ccc(CCCOCCOCCN3CCN(Cc4ccc(-c5cn([C@H]6CC[C@H](O)CC6)c6nc(NCCCF)ncc56)cc4)CC3)cc21 [I-88, 3-(5-[3-[2-(2-[4-[(4-[2-[(3-fluoropropyl)amino]-7-[trans-4-hydroxycyclohexyl]-7H-pyrrolo[2,3-d]pyrimidin-5yl]phenyl)methyl]piperazin-1-yl]ethoxy)ethoxy]propyl]-3-methyl-2-oxo-2,3-dihydro-1H-1,3-benzodiazol-1-yl)piperidine-2,6-dione; formic acid]
CCCCNc1ncc2c(n1)n([C@H]1CC[C@H](O)CC1)cc2[C@H]1CC[C@@H](CN2CCN(CCOCCOCCOCCOCCCc3ccc4c(c3)n(C)c(=O)n4[C@H]3CCC(=O)NC3=O)CC2)CC1 [I-89, 3-[3-methyl-2-oxo-5-[1-(4-[[(1s,4s)-4-[2-(butylamino)-7-[trans-4-hydroxycyclohexy1]-7H-pyrrolo[2,3-d]pyrimidin-5-yl]cyclohexyl]methyl]piperazin-1-yl)-3,6,9,12-tetraoxapentadecan-15-yl]-2,3-dihydro-1H-1,3-benzodiazol-1-yl]piperidine-2,6-dione; di(formic acid)]
CCCCNc1ncc2c(n1)n([C@H]1CC[C@H](O)CC1)cc2[C@H]1CC[C@H](CN2CCN(CCOCCOCCOCCOCCCc3ccc4c(c3)n(C)c(=O)n4[C@H]3CCC(=O)NC3=O)CC2)CC1 [I-90, 3-[3-methyl-2-oxo-5-[1-(4-[[(1r,4r)-4-[2-(butylamino)-7-[trans-4-hydroxycyclohexy1]-7H-pyrrolo[2,3-d]pyrimidin-5-yl]cyclohexyl]methyl]piperazin-1-yl)-3,6,9,12-tetraoxapentadecan-15-y1]-2,3-dihydro-1H-1,3-benzodiazol-1-yl]piperidine-2,6-dione]
Cn1c(=O)n([C@H]2CCC(=O)NC2=O)c2ccc(CCCOCCN3CC(N4CCN(Cc5ccc(-c6cn([C@H]7CC[C@H](O)CC7)c7nc(NCCC(F)(F)F)ncc67)cc5)CC4)C3)cc21 [I-91, 3-(3-methyl-2-oxo-5-[3-[2-(3-[4-[(4-[7-[trans-4-hydroxycyclohexy1]-2-[(3,3,3-trifluoropropyl)amino]-7H-pyrrolo[2,3-d]pyrimidin-5-y1]phenyl)methyl]piperazin-1-yl]azetidin-1-yl)ethoxy]propyl]-2,3-dihydro-1H-1,3-benzodiazol-1-yl)piperidine-2,6-dione; formic acid]
Cn1c(=O)n([C@H]2CCC(=O)NC2=O)c2ccc(C#CCOCCN3CC(N4CCN(Cc5ccc(-c6cn([C@H]7CC[C@H](O)CC7)c7nc(NCCC(F)(F)F)ncc67)cc5)CC4)C3)cc21 [I-92, 3-(3-methyl-2-oxo-5-[3-[2-(3-[4-[(4-[7-[trans-4-hydroxycyclohexy1]-2-[(3,3,3-trifluoropropyl)amino]-7H-pyrrolo[2,3-d]pyrimidin-5-yl]phenyl)methyl]piperazin-1-yl]azetidin-1-yl)ethoxy]prop-1-yn-1-y1]-2,3-dihydro-1H-1,3-benzodiazol-1-y1)piperidine-2,6-dione; formic acid]
Cn1c(=O)n(C2CCC(=O)NC2=O)c2ccc(CCCOCCN3CCC(N4CCN(Cc5ccc(-c6cn([C@H]7CC[C@H](O)CC7)c7nc(NCCC(F)(F)F)ncc67)cc5)CC4)C3)cc21 (stereo partly drawn) [I-93, 3-(3-methyl-2-oxo-5-[3-[2-(3-[4-[(4-[7-[trans-4-hydroxycyclohexy1]-2-[(3,3,3-trifluoropropyl)amino]-7H-pyrrolo[2,3-d]pyrimidin-5-yl]phenyl)methyl]piperazin-1-yl]pyrrolidin-1-y1)ethoxy]propyl]-2,3-dihydro-1H-1,3-benzodiazol-1-yl)piperidine-2,6-dione; formic acid]
Cn1c(=O)n([C@H]2CCC(=O)NC2=O)c2ccc(CCCOCCN3CCC(N4CCN(Cc5ccc(-c6cn([C@H]7CC[C@H](O)CC7)c7nc(NCCC(F)(F)F)ncc67)cc5)CC4)CC3)cc21 [I-94, 3-(3-methyl-2-oxo-5-[3-[2-(4-[4-[(4-[7-[trans-4-hydroxycyclohexyl]-2-[(3,3,3-trifluoropropyl)amino]-7H-pyrrolo[2,3-d]pyrimidin-5-yl]phenyl)methyl]piperazin-1-yl]piperidin-1-yl)ethoxy]propyl]-2,3-dihydro-1H-1,3-benzodiazol-1-y1)piperidine-2,6-dione; formic acid]
